The experiment concerns the target T1, AhR (Homo sapiens, UniProt P35869).
T1 construct: host or cells: HepG2
T1 sequence (P35869 11-848): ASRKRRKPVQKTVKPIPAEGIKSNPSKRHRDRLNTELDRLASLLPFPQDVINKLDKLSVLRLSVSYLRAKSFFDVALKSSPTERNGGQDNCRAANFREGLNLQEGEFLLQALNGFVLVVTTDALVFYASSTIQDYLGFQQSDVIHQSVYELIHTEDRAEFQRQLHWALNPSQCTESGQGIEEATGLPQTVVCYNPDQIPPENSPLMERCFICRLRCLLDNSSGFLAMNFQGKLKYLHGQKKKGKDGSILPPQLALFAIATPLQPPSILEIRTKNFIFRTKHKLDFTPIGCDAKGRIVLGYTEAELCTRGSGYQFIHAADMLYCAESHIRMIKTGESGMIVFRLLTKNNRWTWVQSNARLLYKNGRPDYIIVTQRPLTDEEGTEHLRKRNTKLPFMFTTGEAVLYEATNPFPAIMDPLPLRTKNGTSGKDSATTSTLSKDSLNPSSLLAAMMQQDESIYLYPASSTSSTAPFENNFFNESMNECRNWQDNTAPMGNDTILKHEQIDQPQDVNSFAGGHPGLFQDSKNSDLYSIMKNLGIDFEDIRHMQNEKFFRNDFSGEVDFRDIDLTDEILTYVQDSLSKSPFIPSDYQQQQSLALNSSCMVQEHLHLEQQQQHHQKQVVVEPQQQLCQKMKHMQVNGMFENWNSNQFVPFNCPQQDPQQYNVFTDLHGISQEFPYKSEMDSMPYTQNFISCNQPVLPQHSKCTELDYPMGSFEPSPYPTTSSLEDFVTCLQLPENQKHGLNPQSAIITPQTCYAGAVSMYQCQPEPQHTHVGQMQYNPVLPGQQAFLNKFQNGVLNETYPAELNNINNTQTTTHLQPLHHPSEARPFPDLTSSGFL
In words: In vitro assay 1: XRE-luciferase reporter assay, antagonism in human cell line (HepG2). Type of experiment: cell-based. The text has this:
In Vitro XRE-Luciferase Reporter Assay (In Vitro Assay 1, 2, 3)
AhR activation leads the induction of target gene expression such as CYP1A1 and CYP1B1 by AhR binding to AhR-responsive DNA elements also known as xenobiotics responsive elements (XRE). The assay for measuring AhR activity herein is the luciferase assay using cell lines transfected with luciferase reporter plasmid containing XREs at the upstream of the reporter gene. Cells transfected with XRE-luciferase reporter (XRE-Luc) plasmid drive luciferase activity reflecting activation and inhibition of AhR in the cells. In addition to transfection with XRE-reporter vector, cells were co-transfected with Nano-luciferase reporter gene construct (Nano-Luc) containing constitutively active promoter as internal control. Kynurenine (an endogenous AhR agonist) was used to stimulate cells to test antagonistic properties of the compounds. The half-maximal inhibitory concentration (IC50) or half-maximal effective concentration (EC50) value was calculated using nonlinear regression (four parameters) with Prism8.0 software (GraphPad).
In Vitro Assay 1: Antagonism in Human Cell Line
HepG2 (human hepatoma cell line) cell line with a XRE-luciferase reporter either transiently or stably (Invivogen) were plated in complete medium and incubated at 37° C. in a CO2 incubator. After 24 hours, cells were treated with kynurenine (50* or 200 μM) alone (negative control) or with test compounds for 6 hours. Luciferase activity was measured with a commercial kit such as the Promega Luciferase kit or other reagents for measuring luciferase activity. Relative luciferase activity (Firefly/Nano-Luc) was used to calculate IC50 values. The relative luciferase activity was further normalized with kynurenine alone group as the maximum control and the vehicle group as the minimum control. (IC50 values are grouped as A, B, C and D, whereby A: IC50<0.01 μM; B: 0.01<IC50<0.1 μM; C: 0.1<IC50<1.0 μM; D: IC50>1.0 μM)
A general note: In a reporter assay the amount or activity of a reporter protein is the signal.

The mark [1] stands for this setting: HepG2 XRE-luciferase, cells treated with kynurenine 200 μM (no *), 6 hours, read-out: Assay 1: AhR-Luc Human Antagonism (IC50).
The mark [2] stands for this setting: HepG2 XRE-luciferase, cells treated with kynurenine 50 μM (*), 6 hours, read-out: Assay 1: AhR-Luc Human Antagonism (IC50).

Like-named read-outs stand apart in the source and are kept apart here.

As a reminder, the IC50 is the point on the concentration scale where inhibition reaches its midpoint. As to `CC(C)(O)Cn1cnc2c(-c3cccnc3)nc(-c3ccc(C(F)(F)F)nc3)cc2c1=O` [Example 40, 3-(2-hydroxy-2-methylpropyl)-8-(pyridin-3-yl)-6-(6-(trifluoromethyl)pyridin-3-yl)pyrido[3,4-d]pyrimidin-4(3H)-one], under setting [1], the IC50 is less than 10 nM.

Consider `CC(CN)n1cnc2c(-c3cccnc3)nc(-c3ccc(C(F)(F)F)cc3)cc2c1=O` (centres unmarked) [Example 85, 3-(1-aminopropan-2-yl)-8-(pyridin-3-yl)-6-(4-(trifluoromethyl)phenyl)pyrido[3,4-d]pyrimidin-4(3H)-one], for which the IC50 under setting [1] lay within 10 to 100 nM. Same read-out and setting: with `O=c1c2cc(-c3ccc(Cl)cc3)nc(-c3cccnc3)c2ncn1-c1cccc(O)c1` [Example 61, 6-(4-chlorophenyl)-3-(3-hydroxyphenyl)-8-(pyridin-3-yl)pyrido[3,4-d]pyrimidin-4(3H)-one] the figure was less than 10 nM; with `O=c1c2cc(-c3ccc(Cl)cc3)nc(-c3cccnc3)c2ncn1C1CCC(O)CC1` (centres unmarked) [Example 58, 6-(4-chlorophenyl)-3-((1s,4s)-4-hydroxycyclohexyl)-8-(pyridin-3-yl)pyrido[3,4-d]pyrimidin-4(3H)-one], less than 10 nM.

As to `CC(=O)NCC(C)n1cnc2c(-c3cccnc3)nc(-c3ccc(C(F)(F)F)cc3)cc2c1=O` (centres unmarked) [Example 86, N-(2-(4-oxo-8-(pyridin-3-yl)-6-(4-(trifluoromethyl)phenyl)pyrido[3,4-d]pyrimidin-3(4H)-yl)propyl)acetamide], under setting [1], the IC50 was 10 to 100 nM. For the compound `Cn1cc(-c2cc3c(=O)n(C4CCCC(O)C4)cnc3c(-c3cnn(C)c3)n2)cn1` (centres unmarked) [Example 2, 3-(3-hydroxycyclohexyl)-6,8-bis(1-methyl-1H-pyrazol-4-yl)pyrido[3,4-d]pyrimidin-4(3H)-one], the concentration for half-maximal inhibition (IC50) under setting [2] lay in the range of 100 to 1000 nM. As to `CC(CO)n1cnc2c(-c3ccc(C(F)(F)F)cc3)nc(-c3ccc(C(F)(F)F)cc3)cc2c1=O` (centres unmarked) [Example 6, 3-(1-hydroxypropan-2-yl)-6,8-bis(4-(trifluoromethyl)phenyl)pyrido[3,4-d]pyrimidin-4(3H)-one], under setting [2], the IC50 fell in the range of 100 to 1000 nM. In the case of `CC(CO)n1cnc2c(-c3ccc(C(F)(F)F)cc3)nc(-c3cnn(C)c3)cc2c1=O` (centres unmarked) [Example 4, 3-(1-hydroxypropan-2-yl)-6-(1-methyl-1H-pyrazol-4-yl)-8-(4-(trifluoromethyl)phenyl)pyrido[3,4-d]pyrimidin-4(3H)-one], under setting [2], the IC50 was greater than 1000 nM.

As for `CC(C)C(CO)n1cnc2c(-c3cccnc3)nc(-c3ccc(C(F)(F)F)nc3)cc2c1=O` (centres unmarked) [Example 43, 3-(1-hydroxy-3-methylbutan-2-yl)-8-(pyridin-3-yl)-6-(6-(trifluoromethyl)pyridin-3-yl)pyrido[3,4-d]pyrimidin-4(3H)-one], the IC50 under setting [1] is greater than 1000 nM. The same measure, in the same setting: then `O=c1c2cc(-c3ccc(Cl)cc3)nc(-c3cccnc3)c2ncn1CC(O)C(F)(F)F` (centres unmarked) [Example 24, 6-(4-chlorophenyl)-8-(pyridin-3-yl)-3-(3,3,3-trifluoro-2-hydroxypropyl)pyrido[3,4-d]pyrimidin-4(3H)-one], with less than 10 nM. Consider `CCOP(=O)(OCC)OCC(C)n1cnc2c(-c3cccnc3)nc(-c3ccc(Cl)cc3)cc2c1=O` (centres unmarked) [Example 47, 2-(6-(4-chlorophenyl)-4-oxo-8-(pyridin-3-yl)pyrido[3,4-d]pyrimidin-3(4H)-yl)propyl diethyl phosphate], for which the IC50 fell in the range of 10 to 100 nM.

For `O=c1c2cc(-c3ccc(C(F)(F)F)nc3)nc(-c3cccnc3)c2ncn1[C@@H]1CC[C@H](O)C1` [Example 65, 3-((1R,3S)-3-hydroxycyclopentyl)-8-(pyridin-3-yl)-6-(6-(trifluoromethyl)pyridin-3-yl)pyrido[3,4-d]pyrimidin-4(3H)-one], the IC50 under setting [1] is less than 10 nM. Same read-out and setting: with `O=c1c2cc(-c3ccc(Cl)cc3)nc(-c3cccnc3)c2ncn1[C@H]1CCCC[C@H]1O` [Example 21] the figure was greater than 1000 nM; with `Cn1cc(-c2nc(-c3ccc(Cl)cc3)cc3c(=O)n(-c4cccc(O)c4)cnc23)cn1` [Example 26, 6-(4-chlorophenyl)-3-(3-hydroxyphenyl)-8-(1-methyl-1H-pyrazol-4-yl)pyrido[3,4-d]pyrimidin-4(3H)-one], 10 to 100 nM.

The values are drawn from patent US20230147257A1 (DONG-A ST CO., LTD., priority 2020, published 2023).
